Our source for the inhibition of growth, inhibition and pest or weed control values is US11155517B2, “4-substituted phenylamine derivatives and their use to protect crops by fighting undesired phytopathogenic micoorganisms” (PI INDUSTRIES LTD., priority 2016, dated 2021).

Where two headings read alike, the source gives them in different places. Some results are limits rather than exact numbers.

The subject of assay [1] is Pyricularia oryzae. Description: microbe, parasite or virus in culture. Type of assay: cell-based. The following applies: for inhibition of growth at 300 ppm: 168 h, read-out: % control compared to the untreated check (radial growth); for inhibition at 300 ppm: read-out: PYRIOR % inhibition.
The subject of assay [2] is Corynespora cassicola. The experiment in a line: Table 3 comparative % inhibition, Corynespora cassicola (CORYCA). Type of assay: cell-based. As to conditions: Table 3 comparison.
Assay [3] deals with Rhizoctonia solani. The experiment in a line: Rhizoctonia solani (rice sheath blight/potato black scurf) in vitro test, radial growth on Potato Dextrose Agar. Type of assay: cell-based. As to conditions: for inhibition of growth at 300 ppm: 168 h, seven days, 25° C., read-out: % control compared to the untreated check (radial growth); for inhibition at 300 ppm: Table 3 comparison, read-out: RHIZSO % inhibition.

Assay [4] relates to Botrytis cinerea. The experiment in a line: Botrytis cinerea (gray mold) in vitro test, radial growth on Potato Dextrose Agar. The following applies: for inhibition of growth at 300 ppm: 168 h, seven days, 22° C., read-out: % (control) compared to the untreated check (radial growth); for inhibition at 300 ppm: read-out: BOTRCI % inhibition. It is filed as cell-based.
Assay [5] concerns Alternaria solani. The experiment in a line: Alternaria solani (early blight of tomato/potato) in vitro test, radial growth on Potato Dextrose Agar. Type of assay: cell-based. As to conditions: for inhibition of growth at 300 ppm: 168 h, seven days, 25° C., read-out: % control compared to the untreated check (radial growth); for inhibition at 300 ppm: Table 3 comparison, read-out: ALTESO % inhibition.

Assay [6] deals with Septoria lycopersici. The experiment in a line: Septoria lycopersici (leaf spot of tomato) in vitro test, radial growth on Potato Dextrose Agar. It is filed as cell-based. The following applies: 168 h, seven days, 25° C., read-out: % control compared to the untreated check (radial growth).
Assay [7] concerns Fusarium culmorum. Description: Greenhouse Fusarium culmorum test in wheat, preventive. It is filed as in vivo. The following applies: 24 h, read-out: Efficacy (% control), disease severity vs untreated check. In outline:
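Young greenhouse wheat sprayed preventively at stated rates (compounds in 2% DMSO/acetone, diluted in water), inoculated one day later with 2×10^6 Fusarium culmorum spores in 2% malt, held at 24 °C, 80-90% RH. Disease severity (0-100%) rated 3, 7, 10 and 15 days after application; % control versus untreated, phytotoxicity also recorded.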

Assay [8] deals with Fusarium culmorum. Description: Fusarium culmorum (foot rot of cereals) in vitro test, radial growth on Potato Dextrose Agar. It is filed as cell-based. The following applies: Fusarium culmorum; for inhibition of growth at 300 ppm: 168 h, read-out: % control compared to the untreated check (radial growth); for inhibition at 300 ppm: Table 3 comparison, read-out: FUSACU % inhibition.

Assay [9] concerns Colletotrichum capsici. Description: Colletotrichum capsici (anthracnose) in vitro test, radial growth on Potato Dextrose Agar. As to conditions: Colletotrichum truncatum; for inhibition of growth at 300 ppm: 168 h, seven days, 25° C., read-out: % control compared to the untreated check (radial growth); for inhibition at 300 ppm: Table 3 comparison, read-out: COLLCA % inhibition. Type of assay: cell-based.

Assay [10] concerns Botrytis cinera. The experiment in a line: Greenhouse Botrytis cinera test in tomato, preventive. Type of assay: in vivo. The following applies: 24 h, plants sprayed one day before inoculation, read-out: Efficacy (% control), disease severity vs untreated check.
Where [11] appears, read: Dose 300 ppm, Table 3 comparison.

Usually inhibition stands for how much of the control response was suppressed. As to `CCN(C)C=Nc1cc(C)c(Cc2ccccc2)cc1C` [Compound 1, N′-(4-benzyl-2,5-dimethylphenyl)-N-ethyl-N-methylformimidamide], the inhibition of growth at 300 ppm in assay [1] was more than 75%; in [3] it was more than 80%; in assay [4] it was more than 80%; in assay [5], more than 75%; in assay [6] it was more than 70%; in assay [8], 75%. Besides, the inhibition of growth at 300 ppm in assay [9] is more than 80%. Further, the inhibition at 300 ppm in assay [1], in assay [2], in assay [3], in assay [4] (setting [11]), in [5] and in [8] was 100% each time. Also, in assay [9], the inhibition at 300 ppm turned out to be 100%. Further, the pest or weed control at 500 ppm in [7] and in [10] was 70 to 100% each time.

`CCN(C)C=Nc1cc(C)c(Cc2ccccc2F)cc1C` [Compound 15, N-ethyl-N′-(4-(2-fluorobenzyl)-2,5-dimethylphenyl)-N-methylformimidamide]: the inhibition of growth at 300 ppm in assay [1] was more than 75%; in assay [3], more than 80%; in [4], more than 80%; in assay [5], more than 75%; in assay [6], more than 70%; in assay [8], 75%. Besides, the inhibition of growth at 300 ppm in assay [9] was more than 80%. Also, the inhibition at 300 ppm in assay [1], in assay [2], in [3], in assay [4] (setting [11]), in assay [5] and in [8] was 100% each time. In addition, the inhibition at 300 ppm in assay [9] stood at 100%. Moreover, the pest or weed control at 500 ppm in assay [10] fell in the range of 70 to 100%.

`CCN(C)C=Nc1cc(C)c(Cc2ccccc2F)cc1Cl` [Compound 16, N′-(2-chloro-4-(2-fluorobenzyl)-5-methylphenyl)-N-ethyl-N-methylformimidamide]: the inhibition of growth at 300 ppm was more than 75% in assay [1]; more than 80% in assay [3]; more than 80% in assay [4]; more than 75% in assay [5]; more than 70% in [6]; 75% in assay [8]. The inhibition of growth at 300 ppm in assay [9] was more than 80%. The inhibition at 300 ppm in assay [1], in [2], in [3], in [4] (setting [11]), in [5] and in assay [8] was 100% each time. The inhibition at 300 ppm in assay [9] came to 100%. For the same compound, in assay [7], the pest or weed control at 500 ppm was 70 to 100%.

Turning to `CCN(C)C=Nc1cc(C)c(C(C#N)c2cccc(C(F)(F)F)c2)cc1C` (centres unmarked) [N′-(4-(cyano(3-(trifluoromethyl)phenyl)methyl)-2,5-dimethylphenyl)-N-ethyl-N-methylformimidamide], the inhibition at 300 ppm in assay [1] was determined as 100%; in assay [2], 64.4%; in assay [3], 100%; in assay [4] (setting [11]) it was 100%; in [5] it was 100%; in assay [8] it was 0%. For the same compound, in assay [9], the inhibition at 300 ppm worked out at 100%.

As to `Cc1cc(C(C#N)c2cccc(C(F)(F)F)c2)c(C)cc1N=CN(C)C` (centres unmarked) [N′-(4-(cyano(3-(trifluoromethyl)phenyl)methyl)-2,5-dimethylphenyl)-N,N-dimethylformimidamide, reference compound], the inhibition at 300 ppm in assay [1] came out at 100%; in [2], 58.7%; in assay [3], 80.9%; in [4] (setting [11]), 77.3%; in assay [5], 79.8%; in assay [8], 0%. In assay [9], the inhibition at 300 ppm came out at 41.3%.

Regarding `CCN(C)C=Nc1cc(C)c(Cc2ccccc2)cc1Cl` [Compound 74, N′-(4-benzyl-2-chloro-5-methylphenyl)-N-ethyl-N-methylformimidamide], the inhibition of growth at 300 ppm in assay [1] is more than 75%; in assay [3], more than 80%; in assay [4] it was more than 80%; in [5] it was more than 75%; in [6], more than 70%; in assay [8], 75%. In addition, in [9], the inhibition of growth at 300 ppm is more than 80%. Also, the inhibition at 300 ppm in assay [1] is 100%; in assay [2], 71.2%; in assay [3], 100%; in assay [4] it was 94.5%; in assay [5], 100%; in [8] it was 94.5%. Besides, the inhibition at 300 ppm in assay [9] was 100%.
